Results taken from patent publication US20240300927A1, “AMIDES AS CBL-B INHIBITORS” (Genentech, Inc., priority 2021, published 2024).
pIC50: −log10 of the molar value. Like-named read-outs stand apart in the source and are kept apart here.

Key:
[1] = biological target: Cbl-b (Homo sapiens (Human), UniProt Q13191); experiment: Cbl-b LCK Ub TR-FRET assay (Cbl-b Lck HTRF); assay type: biochemical
Outline: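 Biotin-Cbl-b (16 nM) or biotin-c-Cbl (12 nM) at 2× preincubated with compound 60 min, then His-LCK (120 nM), 1 mM ATP and MgCl2 (2× mix) added for 90 min at RT. Buffer: HEPES pH 7.0, DTT. UBE2D2–HA-ubiquitin transfer read by TR-FRET (665/615 nm); IC50 versus no-LCK and DMSO controls, 10-point dilutions.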

[2] = Liver microsomes metabolic stability, mouse; assay type: in vitro ADME
Procedure: (§1) Metabolic stability of test compounds was evaluated in pooled rat, mouse, dog, and cynomolgus monkey liver microsomes (BD Biosciences, San Jose, CA). The incubation conditions were as follows: 1 μM of the tested compound, 1 mM NADPH, 0.5 mg/mL microsomal protein in 0.1 M potassium phosphate buffer (pH 7.4). Following a 5-minute pre-incubation period, the enzymatic reactions were initiated by the addition of NADPH and test compound to the microsomes diluted in phosphate buffered saline. The mixtures were incubated at 37° C. for 0, 20, 40, and 60 min.
(§2) Compound concentrations were assessed by LC-MS/MS. Intrinsic clearance based upon microsomal stability data was determined using a substrate depletion method and scaled to hepatic clearance using the well-stirred model (Obach, R. S.; Baxter, J. G.; Liston, T. E.; Silber, B. M.; Jones, B. C.; MacIntyre, F.; Rance, D. J.; Wastall, P., “The Prediction of Human Pharmacokinetic Parameters from Preclinical and in vitro Metabolism Data”, J. Pharmacol. Exp. Ther., (1997), 283 (1), 46-58).

[3] = Liver microsomes metabolic stability, cynomolgus monkey; assay type: in vitro ADME
Procedure: as §1, §2

[4] = LogD; assay type: physicochemical

Cbl-b, sequence (Q13191 40-426): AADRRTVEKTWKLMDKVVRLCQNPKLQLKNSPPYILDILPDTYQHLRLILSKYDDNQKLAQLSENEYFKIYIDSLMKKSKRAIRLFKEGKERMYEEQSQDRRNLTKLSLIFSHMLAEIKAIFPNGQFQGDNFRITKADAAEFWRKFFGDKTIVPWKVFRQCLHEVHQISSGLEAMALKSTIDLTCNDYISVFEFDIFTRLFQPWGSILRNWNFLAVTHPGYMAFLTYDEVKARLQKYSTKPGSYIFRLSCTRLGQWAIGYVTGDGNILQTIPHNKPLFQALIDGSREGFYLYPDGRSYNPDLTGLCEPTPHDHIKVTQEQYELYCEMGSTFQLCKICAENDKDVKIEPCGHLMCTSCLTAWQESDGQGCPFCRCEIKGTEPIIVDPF

Q: For CC(C)[C@H]1CN(C)CCN1Cc1cc(C(=O)Nc2cccc(C3(Cc4nncn4C)CC(F)(F)C3)c2)nc(C2CC2)c1 [Compound 224, (S)-6-cyclopropyl-N-(3-(3,3-difluoro-1-((4-methyl-4H-1,2,4-triazol-3-yl)methyl)cyclobutyl)phenyl)-4-((2-isopropyl-4-methylpiperazin-1-yl)methyl)picolinamide], which “(fold-selectivity)” value ([1]; Cbl-b and C-Cbl selectivity, Lck HTRF) is on record?
A: Its value is “(0.66x)”.

Q: What about the pIC50 ([1]; Table 4 comparative data, read-out: Lck IC50) of the same molecule?
A: The pIC50 was 8.12.

Q: And the pIC50 ([1]; read-out: Cbl-b Lck HTRF IC50)?
A: The pIC50 was 8.12.

Q: And the “Lck IC50 (select.)” value ([1]; selectivity, Table 4)?
A: The value was 0.68 x.

Q: What about the “LM (H/R/M/D/C)” value [2] of the same molecule?
A: Its value is 60.

Q: What about the “LM (H/R/M/D/C)” value [3] of the same molecule?
A: The value was 40.

Q: What about the logD [4] of the same molecule?
A: Its logD is 2.2.
